The text below walks through data of patent publication US20250382332A1, “NOVEL ALPHA-FACTOR BASED PEPTIDES WITH ANTIFUNGAL ACTIVITY” (INVAIO SCIENCES, INC., priority 2024, published 2025).

The subject of this test is Botrytis cinerea (B05.10). Nature of the test: Resazurin antifungal assay of 180 alpha-factor peptide variants towards Botrytis (Example 2). Format: cell-based. To be noted: for Inhibition at 10 μM / Inhibition at 20 μM / Inhibition at 50 μM / Inhibition at 100 μM / Inhibition at 15 μM: % inhibition of fungal growth, Botrytis conidia, resazurin; for Inhibition at 10 μM: peptide 10 μM; for Inhibition at 20 μM: peptide 20 μM; for Inhibition at 50 μM: peptide 50 μM; for Inhibition at 100 μM: peptide 100 μM; for Inhibition at 15 μM / active against Botrytis at 15 μM: peptide 15 μM. The arrangement: key to active against Botrytis at 15 μM / active against Botrytis at 10 μM: Peptides that showed greater than 90% inhibition were considered active against Botrytis. On the procedure:
The antifungal activity of 180 alpha-factor peptide variants towards Botrytis was tested. Experimental design:
Peptides corresponding to SEQ ID NO: 1-180 were chemically synthesized using the solid-phase synthesis method and resuspended in water to a stock solution of 1 mM. The stock solution was aliquoted in cryovials and stored at −80° C.
The Botrytis cinerea culture (B05.10) isolate was acquired from the Centraalbureau voor Schimmelcultures, the Netherlands. The Botrytis fungus was propagated on 0.5% V8 agar plates (200 ml V8 Juice, 3 g CaCO3, 15 g agar, 800-ml millipore water) at 20° C., in a 12 h photoperiod for 21 days.
Fungal conidia were harvested by scraping a Botrytis plate flooded with 1 ml water with 0.1% Tween 80 solution. Conidia were then collected in a 50 ml falcon tube by passing the solution through a 40 micron filter. The solution was then centrifuged at 6000 rpm and the pellet was resuspended in 1 ml of 20% glycerol. The conidia concentration of the resulting solution was counted using a hemocytometer. The stock was diluted to […] using 20% glycerol and frozen in 100 μl aliquots in −80° C. until further use.
Peptides were tested for activity against Botrytis, using the resazurin assay. For this, fungal stock conidia was first diluted to 5000 conidia/well. 50 μl of the spore suspension was added to each well of the sterile 96-well clear bottom testing plate and mixed with 50 μl of peptide solutions to a final concentration of 100, 50, 20, 15 and 10 μM. The plate was incubated for 24 h at 20° C. After 24 h, 10 μl of resazurin dye was added to the microtiter plate and incubated again for […]. Fluorescence was measured at 570/620 nm after 4 h of incubation with resazurin.
Growth inhibition was calculated by subtracting the fluorescence values of conidia only wells from sample wells and depicted as % inhibition of fungal growth. Four technical replicates were used for all treatments.
On the technique in general: The colour change of resazurin is a common sign of viable cells or microbes.

Peptide text beside a SMILES is read from it.

Turning to `CSCC[C@H](NC(=O)[C@H](CO)NC(=O)[C@H](CCC(N)=O)NC(=O)CNC(=O)[C@H](CCCNC(=N)N)NC(=O)[C@H](Cc1c[nH]c2ccccc12)NC(=O)[C@H](Cc1ccccc1)NC(=O)[C@H](CCC(N)=O)NC(=O)[C@H](CC(C)C)NC(=O)[C@H](Cc1c[nH]c2ccccc12)NC(=O)[C@H](Cc1c[nH]cn1)NC(=O)[C@@H](N)Cc1c[nH]c2ccccc12)C(=O)N[C@@H](Cc1ccc(O)cc1)C(=O)O` [compound 1] (H-WHWLQFWRGQSMY-OH; N-terminus and C-terminus assumed), the “Inhibition at 10 μM” value is under 90%, the “Inhibition at 20 μM” value was under 90%, the “Inhibition at 50 μM” value is on record as 100% and the “Inhibition at 100 μM” value is 100%.

For the molecule `CSCC[C@H](NC(=O)[C@@H]1CCCN1C(=O)[C@H](CCC(N)=O)NC(=O)CNC(=O)[C@H](CCCCN)NC(=O)[C@H](CCCCN)NC(=O)[C@H](Cc1ccccc1)NC(=O)[C@H](CO)NC(=O)CNC(=O)[C@H](Cc1c[nH]c2ccccc12)NC(=O)[C@H](Cc1c[nH]cn1)NC(=O)[C@@H]1CCCN1)C(=O)N[C@@H](Cc1ccc(O)cc1)C(=O)O` [compound 2] (H-PHWGSFKKGQPMY-OH; N-terminus and C-terminus assumed), the “Inhibition at 10 μM” value is under 90%, the “Inhibition at 20 μM” value is listed as under 90%, the “Inhibition at 50 μM” value came out at 100% and the “Inhibition at 100 μM” value worked out at 100%.

In the case of `CSCC[C@H](NC(=O)[C@@H]1CCCN1C(=O)[C@H](C)NC(=O)CNC(=O)[C@H](Cc1c[nH]c2ccccc12)NC(=O)[C@H](CCCCN)NC(=O)[C@H](CC(C)C)NC(=O)[C@@H](NC(=O)[C@@H](NC(=O)[C@H](Cc1c[nH]c2ccccc12)NC(=O)[C@H](Cc1c[nH]cn1)NC(=O)[C@@H](N)CCCCN)C(C)C)[C@@H](C)O)C(=O)N[C@@H](Cc1ccc(O)cc1)C(=O)O` [compound 3] (H-KHWVTLKWGAPMY-OH; N-terminus and C-terminus assumed), the “Inhibition at 10 μM” value was under 90%, the “Inhibition at 15 μM” value is under 90%, the “Inhibition at 20 μM” value turned out to be 100.61% and the “Inhibition at 50 μM” value is given as 100%. In addition, the “Inhibition at 100 μM” value stood at 100%.

As to `CSCC[C@H](NC(=O)[C@@H]1CCCN1C(=O)[C@H](CCC(N)=O)NC(=O)CNC(=O)[C@@H]1CCCN1C(=O)[C@H](CCCCN)NC(=O)[C@H](Cc1ccccc1)NC(=O)[C@H](CCCNC(=N)N)NC(=O)[C@H](CC(C)C)NC(=O)[C@H](CC(C)C)NC(=O)[C@H](Cc1c[nH]cn1)NC(=O)[C@@H](N)Cc1c[nH]c2ccccc12)C(=O)N[C@@H](Cc1ccc(O)cc1)C(=O)O` [compound 4] (H-WHLLRFKPGQPMY-OH; N-terminus and C-terminus assumed), the “Inhibition at 10 μM” value is under 90%, the “Inhibition at 20 μM” value is reported as under 90%, the “Inhibition at 50 μM” value is 100% and the “Inhibition at 100 μM” value is on record as 100%.

With `CSCC[C@H](NC(=O)[C@@H]1CCCN1C(=O)[C@H](CCC(N)=O)NC(=O)CNC(=O)[C@@H]1CCCN1C(=O)[C@H](CCCCN)NC(=O)[C@H](Cc1ccccc1)NC(=O)[C@H](CCCNC(=N)N)NC(=O)[C@H](CC(C)C)NC(=O)[C@H](Cc1c[nH]c2ccccc12)NC(=O)[C@H](Cc1c[nH]cn1)NC(=O)[C@@H]1CCCN1)C(=O)N[C@@H](Cc1ccc(O)cc1)C(=O)O` [compound 5] (H-PHWLRFKPGQPMY-OH; N-terminus and C-terminus assumed), the “Inhibition at 10 μM” value is under 90%, the “Inhibition at 20 μM” value is given as under 90%, the “Inhibition at 50 μM” value was determined as 100% and the “Inhibition at 100 μM” value was determined as 100%.

Regarding `CSCC[C@H](NC(=O)[C@@H]1CCCN1C(=O)[C@H](C)NC(=O)CNC(=O)[C@H](CCCNC(=N)N)NC(=O)[C@H](CCCCN)NC(=O)[C@H](CC(C)C)NC(=O)[C@H](CCC(N)=O)NC(=O)[C@@H](NC(=O)[C@H](Cc1c[nH]c2ccccc12)NC(=O)[C@H](Cc1c[nH]cn1)NC(=O)[C@@H]1CCCN1)C(C)C)C(=O)N[C@@H](Cc1ccc(O)cc1)C(=O)O` [compound 6] (H-PHWVQLKRGAPMY-OH; N-terminus and C-terminus assumed), the “Inhibition at 10 μM” value was under 90%, the “Inhibition at 20 μM” value was under 90%, the “Inhibition at 50 μM” value came to 100% and the “Inhibition at 100 μM” value is recorded as 100%.

For `CC[C@H](C)[C@H](NC(=O)[C@H](CCC(N)=O)NC(=O)[C@H](CC(C)C)NC(=O)[C@H](Cc1c[nH]c2ccccc12)NC(=O)[C@H](Cc1c[nH]cn1)NC(=O)[C@@H](N)CCCCN)C(=O)N[C@@H](CCCCN)C(=O)N[C@@H](Cc1ccc(O)cc1)C(=O)NCC(=O)N[C@@H](CCC(=O)O)C(=O)N1CCC[C@H]1C(=O)N[C@@H](CCSC)C(=O)N[C@@H](Cc1ccc(O)cc1)C(=O)O` [compound 7] (H-KHWLQIKYGEPMY-OH; N-terminus and C-terminus assumed), the “Inhibition at 10 μM” value is recorded as under 90%, the “Inhibition at 20 μM” value was under 90%, the “Inhibition at 50 μM” value is recorded as 100% and the “Inhibition at 100 μM” value worked out at 100%.

On to `CC[C@H](C)[C@H](NC(=O)[C@H](Cc1c[nH]c2ccccc12)NC(=O)[C@H](Cc1c[nH]cn1)NC(=O)[C@@H](N)CCCCN)C(=O)N[C@@H](CCCCN)C(=O)N[C@@H](CC(C)C)C(=O)N[C@@H](CCSC)C(=O)N1CCC[C@H]1C(=O)NCC(=O)N[C@@H](CCC(N)=O)C(=O)NCC(=O)N[C@@H](CCSC)C(=O)N[C@@H](Cc1ccc(O)cc1)C(=O)O` [compound 8] (H-KHWIKLMPGQGMY-OH; N-terminus and C-terminus assumed), for which the “Inhibition at 10 μM” value is given as under 90%, the “Inhibition at 20 μM” value is reported as under 90%, the “Inhibition at 50 μM” value came out at 100% and the “Inhibition at 100 μM” value was found to be 100%.

As to `CSCC[C@H](NC(=O)[C@@H]1CCCN1C(=O)[C@H](CCC(N)=O)NC(=O)CNC(=O)[C@@H]1CCCN1C(=O)[C@H](CCCCN)NC(=O)[C@H](Cc1ccccc1)NC(=O)[C@H](CCCNC(=N)N)NC(=O)[C@H](CC(C)C)NC(=O)[C@H](Cc1c[nH]c2ccccc12)NC(=O)[C@H](Cc1c[nH]cn1)NC(=O)[C@@H](N)CCCCN)C(=O)N[C@@H](Cc1ccc(O)cc1)C(=O)O` [compound 9] (H-KHWLRFKPGQPMY-OH; N-terminus and C-terminus assumed), the “Inhibition at 10 μM” value was under 90%, the “Inhibition at 15 μM” value is 100%, the “Inhibition at 20 μM” value amounted to 100% and the “Inhibition at 50 μM” value stood at 100%. Besides, the “Inhibition at 100 μM” value was 100% and the “active against Botrytis at 15 μM” value is “active”.

Consider `CC[C@H](C)[C@H](NC(=O)[C@H](CCC(N)=O)NC(=O)[C@@H](NC(=O)[C@H](Cc1c[nH]c2ccccc12)NC(=O)[C@H](Cc1c[nH]cn1)NC(=O)[C@@H]1CCCN1)C(C)C)C(=O)N[C@@H](CCCCN)C(=O)N[C@@H](CC(C)C)C(=O)NCC(=O)N[C@@H](CCC(N)=O)C(=O)N1CCC[C@H]1C(=O)N[C@@H](CCSC)C(=O)N[C@@H](Cc1ccc(O)cc1)C(=O)O` [compound 10] (H-PHWVQIKLGQPMY-OH; N-terminus and C-terminus assumed), for which the “Inhibition at 10 μM” value is under 90%, the “Inhibition at 20 μM” value is reported as under 90%, the “Inhibition at 50 μM” value came to 100% and the “Inhibition at 100 μM” value was found to be 100%.

As to `CC[C@H](C)[C@H](NC(=O)[C@H](Cc1c[nH]c2ccccc12)NC(=O)[C@H](Cc1c[nH]cn1)NC(=O)[C@@H](N)CCCCN)C(=O)N[C@H](C(=O)N[C@@H](Cc1ccccc1)C(=O)N[C@@H](CCCCN)C(=O)N1CCC[C@H]1C(=O)NCC(=O)N[C@@H](CCC(N)=O)C(=O)N1CCC[C@H]1C(=O)N[C@@H](CCSC)C(=O)N[C@@H](Cc1ccc(O)cc1)C(=O)O)[C@@H](C)O` [compound 11] (H-KHWITFKPGQPMY-OH; N-terminus and C-terminus assumed), the “Inhibition at 10 μM” value was under 90%, the “Inhibition at 20 μM” value is listed as under 90%, the “Inhibition at 50 μM” value was 100% and the “Inhibition at 100 μM” value came out at 100%.

On to `CSCC[C@H](NC(=O)[C@@H]1CCCN1C(=O)[C@H](CCC(N)=O)NC(=O)CNC(=O)[C@@H]1CCCN1C(=O)[C@H](CCCCN)NC(=O)[C@H](Cc1ccccc1)NC(=O)[C@H](CCCNC(=N)N)NC(=O)[C@H](CC(C)C)NC(=O)[C@@H](NC(=O)[C@H](Cc1c[nH]cn1)NC(=O)[C@@H](N)CCCCN)C(C)C)C(=O)N[C@@H](Cc1ccc(O)cc1)C(=O)O` [compound 12] (H-KHVLRFKPGQPMY-OH; N-terminus and C-terminus assumed), for which the “Inhibition at 10 μM” value is under 90%, the “Inhibition at 15 μM” value is 98.79%, the “Inhibition at 20 μM” value turned out to be 99.94% and the “Inhibition at 50 μM” value came out at 100%. Also, the “Inhibition at 100 μM” value worked out at 100% and the “active against Botrytis at 15 μM” value was “active”.

Broadly, the Inhibition is the drop in the measured response relative to a control, in per cent.
